Test results: the supplement of paper PMC10331698
± gives the standard deviation of the averaged measurements.

Legend:
Assay in all cases: level (log10 ratio to DMSO vehicle control); higher = higher biomarker level / cell amount than vehicle control
Settings in all cases: in DMSO
[1] = compound: C=C(C)C(=O)OCC(F)(F)C(F)(F)C(F)(F)C(F)(F)C(F)(F)C(F)(F)C(F)(F)F
Method: (§1)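 BioMAP Diversity Plus panel of 12 human primary cell co-culture systems (3C, 4H, LPS, SAg, BT, BF4T, BE3C, CASM3C, HDF3CGF, KF3CT, MyoF, Mphg). Compounds were added 1 h before stimulation and left for 24 h (MyoF 48 h; BT 72 h for soluble read-outs or 6 d for IgG). Biomarkers were read by ELISA, cytotoxicity by SRB, PBMC viability and proliferation by Alamar Blue. Each well value was divided by the mean of 8 DMSO control wells on the same plate and log10 transformed; duplicate blinded samples were tested at 4 concentrations.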

1-(Perfluorohexyl)octane = compound: CCCCCCCCC(F)(F)C(F)(F)C(F)(F)C(F)(F)C(F)(F)C(F)(F)F [1-(Perfluorohexyl)octane]
Method: as §1

[2] = compound: O=C(O)C(F)(F)C(F)(F)C(F)(F)C(F)(F)C(F)(F)C(F)(F)C(F)(F)C(F)(F)Cl [9-Chloro-perfluorononanoic acid]
Method: as §1

[3] = compound: O=C(O)CCC(F)(F)C(F)(F)C(F)(F)C(F)(F)C(F)(F)F [2H,2H,3H,3H-Perfluorooctanoic acid]
Method: as §1

| Test System | level (log10) ([1]; 6700 nM) | level (log10) ([1]; 20000 nM) | level (log10) (1-(Perfluorohexyl)octane; 6700 nM) | level (log10) (1-(Perfluorohexyl)octane; 20000 nM) | level (log10) ([2]; 6700 nM) | level (log10) ([2]; 20000 nM) | level (log10) ([3]; 6700 nM) | level (log10) ([3]; 20000 nM) | level (log10) ([3]; 60000 nM) |
| --- | --- | --- | --- | --- | --- | --- | --- | --- | --- |
| 4H:CCL2/MCP-1 | -0.0415 ± 0.0092 | -0.005 ± 0.061 | -0.0525 ± 0.019 | -0.0495 ± 0.021 | -0.001 ± 0.014 | -0.0245 ± 0.0035 | 0.009 ± 0.0042 | -0.008 ± 0.0057 | 0.0025 ± 0.0064 |
| BF4T:IL-1alpha | -0.0175 ± 0.025 | 0.006 ± 0.0099 | -0.017 ± 0.018 | 0.012 ± 0.02 | 0.0205 ± 0.0035 | -0.023 ± 0.011 | -0.0035 ± 0.0078 | -0.0065 ± 0.016 | 0.017 ± 0.021 |
| 4H:CD106/VCAM-1 | -0.0205 ± 0.00071 | 0.0005 ± 0.021 | 0.011 ± 0.04 | -0.005 | -0.0145 ± 0.0078 | 0.0035 ± 0.013 | -0.0135 ± 0.0092 | -0.0325 ± 0.026 | -0.0405 ± 0.029 |
| BF4T:MMP-9 | 0.015 ± 0.0071 | 0.0165 ± 0.005 | -0.014 ± 0.02 | 0.005 ± 0.025 | -0.0395 ± 0.036 | -0.0715 ± 0.019 | -0.0095 ± 0.03 | -0.022 ± 0.027 | 0.015 ± 0.018 |
| BF4T:MMP-1 | -0.0075 ± 0.015 | 0.016 ± 0.011 | -0.0155 ± 0.035 | 0.0075 ± 0.052 | -0.0115 ± 0.0078 | 0.0245 ± 0.0064 | -0.003 ± 0.0042 | 0.001 ± 0.023 | 0.005 ± 0.021 |
| BF4T:SRB | 0.0005 ± 0.0078 | -0.005 ± 0.011 | -0.0045 ± 0.0035 | -0.0035 ± 0.0035 | -0.013 ± 0.0071 | -0.0555 ± 0.0064 | -0.0005 ± 0.0078 | -0.003 ± 0.013 | -0.005 ± 0.0028 |
| LPS:CXCL8/IL-8 | -0.0045 ± 0.0092 | 0.033 ± 0.011 | 0.0335 ± 0.00071 | 0.0405 ± 0.026 | 0.019 ± 0.062 | 0.061 ± 0.048 | 0.054 ± 0.034 | 0.0715 ± 0.09 | 0.121 ± 0.11 |
| LPS:sPGE2 | -0.0035 ± 0.05 | -0.031 ± 0.034 | 0.011 ± 0.018 | 0.02 ± 0.0042 | 0.0175 ± 0.0092 | -0.0895 ± 0.0078 | -0.0095 ± 0.033 | -0.08 ± 0.0014 | -0.111 ± 0.049 |
| BT:sIL-2 | 0.012 ± 0.0099 | 0.0075 ± 0.047 | -0.024 ± 0.073 | 0.0635 ± 0.067 | -0.0175 ± 0.066 | -0.0565 ± 0.1 | -0.0225 ± 0.036 | 0.0065 ± 0.044 | -0.05 ± 0.072 |
| BF4T:MMP-3 | 0.002 ± 0.023 | -0.007 ± 0.018 | 0.005 ± 0.0057 | -0.0135 ± 0.016 | 0.0535 ± 0.023 | 0.118 ± 0.035 | -0.0015 ± 0.019 | 0.0025 ± 0.0035 | 0.0235 ± 0.066 |
| BE3C:CD87/uPAR | 0.0015 ± 0.016 | -0.004 ± 0.023 | 0.0085 ± 0.00071 | 0.017 ± 0.0099 | 0.0445 ± 0.0021 | -0.0005 ± 0.039 | -0.0085 ± 0.0064 | 0.005 ± 0.033 | 0.0255 ± 0.037 |
| BE3C:CXCL10/IP-10 | 0.0135 ± 0.018 | -0.004 ± 0.014 | 0.0055 ± 0.013 | -0.0025 ± 0.012 | -0.0545 ± 0.015 | -0.462 ± 0.011 | -0.009 ± 0.0042 | -0.006 ± 0.0028 | -0.0075 ± 0.005 |
| 4H:SRB | 0.0005 ± 0.029 | -0.0035 ± 0.018 | 0.0035 ± 0.019 | -0.002 ± 0.0042 | -0.0015 ± 0.00071 | -0.0055 ± 0.0035 | -0.004 ± 0.0099 | -0.0115 ± 0.016 | -0.001 ± 0.014 |
| BE3C:CXCL8/IL-8 | 0.011 ± 0.024 | 0.0275 ± 0.015 | 0.0125 ± 0.052 | 0.068 ± 0.024 | 0.0025 ± 0.025 | -0.102 ± 0.049 | 0.033 ± 0.042 | 0.004 ± 0.041 | 0.0035 ± 0.036 |
| BT:Secreted IgG | 0.021 ± 0.055 | 0.024 ± 0.013 | 0.0355 ± 0.012 | 0.04 ± 0.028 | 0.0065 ± 0.06 | 0.0175 ± 0.011 | 0.016 ± 0.0028 | -0.033 ± 0.098 | -0.212 ± 0.17 |
| SAg:Proliferation | 0.0015 ± 0.0064 | 0.0185 ± 0.0092 | 0.0125 ± 0.04 | 0.0675 ± 0.03 | -0.036 ± 0.033 | 0.02 ± 0.02 | -0.011 ± 0.017 | -0.0475 ± 0.067 | -0.115 |

| Test System | level (log10) ([1]; 6700 nM) | level (log10) ([1]; 20000 nM) | level (log10) (1-(Perfluorohexyl)octane; 6700 nM) | level (log10) (1-(Perfluorohexyl)octane; 20000 nM) | level (log10) ([2]; 6700 nM) | level (log10) ([2]; 20000 nM) | level (log10) ([3]; 6700 nM) | level (log10) ([3]; 20000 nM) | level (log10) ([3]; 60000 nM) |
| --- | --- | --- | --- | --- | --- | --- | --- | --- | --- |
| 3C:CD87/uPAR | -0.0235 ± 0.054 | -0.015 ± 0.048 | -0.0145 ± 0.013 | -0.0075 ± 0.019 | -0.013 ± 0.017 | -0.011 ± 0.038 | -0.0155 ± 0.043 | -0.0055 ± 0.016 | -0.021 ± 0.023 |
| 4H:CCL26/Eotaxin-3 | 0.0385 ± 0.043 | 0.0315 ± 0.047 | -0.0025 ± 0.0021 | 0.004 ± 0.021 | -0.04 ± 0.011 | 0.016 ± 0.037 | 0.032 ± 0.017 | 0.0095 ± 0.016 | 0.0125 ± 0.015 |
| SAg:CD38 | -0.0195 ± 0.00071 | 0.011 ± 0.0071 | 0.0015 ± 0.0078 | 0.0105 ± 0.00071 | -0.02 ± 0.021 | -0.0315 ± 0.028 | -0.0215 ± 0.037 | -0.024 ± 0.041 | -0.0595 ± 0.03 |
| BT:sIL-17F | 0.0315 ± 0.0035 | -0.0245 ± 0.063 | 0.083 ± 0.033 | 0.089 ± 0.0071 | -0.0055 ± 0.074 | 0.011 ± 0.024 | -0.016 ± 0.058 | -0.0575 ± 0.059 | -0.01 ± 0.064 |
| SAg:CXCL8/IL-8 | -0.024 ± 0.031 | 0.0185 ± 0.0064 | -0.013 ± 0.0085 | 0.032 ± 0.041 | 0.0125 ± 0.0078 | 0.0445 ± 0.0092 | -0.029 ± 0.079 | -0.0335 ± 0.039 | 0.0525 ± 0.018 |
| LPS:CD141/Thrombomodulin | 0.0115 ± 0.019 | -0.015 ± 0.025 | -0.0215 ± 0.0021 | 0.0025 ± 0.023 | 0.0485 ± 0.033 | 0.064 ± 0.03 | 0.0745 ± 0.043 | 0.048 ± 0.089 | 0.009 ± 0.088 |
| SAg:SRB | -0.001 ± 0.0099 | -0.0095 ± 0.021 | 0.0035 ± 0.0078 | -0.004 ± 0.018 | -0.003 ± 0.0099 | -0.0105 ± 0.005 | -0.0065 ± 0.00071 | -0.0095 ± 0.0035 | -0.0025 ± 0.013 |
| BF4T:PAI-I | 0.0195 ± 0.022 | 0.0135 ± 0.019 | 0.0075 ± 0.026 | 0.0005 ± 0.028 | -0.027 ± 0.0042 | -0.052 ± 0.0028 | -0.005 ± 0.014 | -0.0155 ± 0.016 | -0.024 ± 0.014 |
| SAg:CXCL9/MIG | -0.003 ± 0.017 | 0.009 ± 0.0014 | -0.002 ± 0.0057 | 0.0095 ± 0.016 | -0.001 ± 0.013 | -0.0025 ± 0.0021 | -0.0005 ± 0.015 | -0.0105 ± 0.018 | 0 ± 0.0057 |
| LPS:CD142/Tissue Factor | -0.0155 ± 0.032 | -0.0245 ± 0.087 | -0.006 ± 0.088 | 0.003 ± 0.083 | 0.0165 ± 0.059 | 0.0375 ± 0.016 | 0.0725 ± 0.018 | 0.063 ± 0.0028 | 0.0265 ± 0.037 |
| BF4T:CD90 | -0.0135 ± 0.0064 | -0.011 ± 0.0085 | -0.004 ± 0.0028 | -0.013 ± 0.0071 | -0.034 ± 0.013 | -0.0285 ± 0.005 | -0.018 ± 0.011 | -0.019 ± 0.0014 | -0.02 ± 0.02 |
| SAg:CD69 | -0.01 ± 0.05 | -0.001 ± 0.045 | -0.0045 ± 0.011 | -0.0045 ± 0.028 | -0.0405 ± 0.043 | -0.035 ± 0.028 | -0.0265 ± 0.043 | -0.025 ± 0.038 | -0.0145 ± 0.028 |
| BF4T:CXCL8/IL-8 | 0.011 ± 0.013 | 0.007 ± 0.0099 | -0.0005 ± 0.00071 | 0.008 ± 0.023 | 0.112 ± 0.042 | 0.0875 ± 0.015 | 0.0095 ± 0.035 | 0.033 ± 0.047 | 0.0645 ± 0.043 |
| SAg:PBMC Cytotoxicity | 0.0115 ± 0.005 | 0.0265 ± 0.046 | 0.023 ± 0.011 | 0.023 ± 0.017 | 0.032 ± 0.028 | 0.0255 ± 0.032 | 0.0125 ± 0.0078 | 0.0255 ± 0.039 | 0.0115 ± 0.039 |
| BF4T:CD106/VCAM-1 | 0.015 ± 0.014 | 0.0105 ± 0.05 | 0.005 ± 0.051 | -0.0025 ± 0.035 | -0.0485 ± 0.005 | -0.141 ± 0.011 | -0.011 ± 0.024 | -0.03 ± 0.0057 | -0.007 ± 0.093 |
| BE3C:CXCL9/MIG | 0.0015 ± 0.00071 | -0.0085 ± 0.0035 | 0.0055 ± 0.0035 | 0.0015 ± 0.0021 | -0.0015 ± 0.00071 | -0.047 | -0.003 | -0.008 ± 0.0057 | 0.0005 ± 0.0035 |
